Experimental data from a compilation of properties of binary mixtures (doi:10.1007/s11581-010-0511-5).

Test: xn = mol fraction of the nth substance listed
Settings: 101 kPa

CO + CCCC[N+]1(C)CCCC1.O=S(=O)([N-]S(=O)(=O)C(F)(F)F)C(F)(F)F
x2 = 0
Settings	viscosity [mPa·s]
298.15 K	0.7
303.15 K	0.66
308.15 K	0.61
313.15 K	0.57
318.15 K	0.53

CCCC[N+]1(C)CCCC1.O=S(=O)([N-]S(=O)(=O)C(F)(F)F)C(F)(F)F + CO
Settings	electrical conductivity [S/m]	viscosity [mPa·s]
293.15 K, x1 = 0.11	0.628	2.16
293.15 K, x1 = 0.16	1.22	3.9
293.15 K, x1 = 0.21	1.6	6.01
293.15 K, x1 = 0.32	1.98	10.65
293.15 K, x1 = 0.42	2.14	15.15
293.15 K, x1 = 0.47	2.04	17.28
293.15 K, x1 = 0.53	1.82	19.42
293.15 K, x1 = 0.58	1.63	21.7
293.15 K, x1 = 0.63	1.47	24.4
293.15 K, x1 = 0.68	1.23	27.6
293.15 K, x1 = 0.74	0.998	31.9
293.15 K, x1 = 0.79	0.82	37.6
293.15 K, x1 = 0.84	0.649	45.2
293.15 K, x1 = 0.89	0.402	55.3
293.15 K, x1 = 0.95	–	68.7
293.15 K, x1 = 1	0.229	86
298.15 K, x1 = 0.05	0.399	0.94
298.15 K, x1 = 0.11	0.684	1.93
298.15 K, x1 = 0.16	1.32	3.43
298.15 K, x1 = 0.21	1.73	5.24
298.15 K, x1 = 0.32	2.15	9.18
298.15 K, x1 = 0.37	2.32	11.1
298.15 K, x1 = 0.42	2.37	12.93
298.15 K, x1 = 0.47	2.33	14.69
298.15 K, x1 = 0.53	2.12	16.43
298.15 K, x1 = 0.58	1.88	18.28
298.15 K, x1 = 0.63	1.66	20.39
298.15 K, x1 = 0.68	1.43	23
298.15 K, x1 = 0.74	1.2	26.3
298.15 K, x1 = 0.79	0.991	30.8
298.15 K, x1 = 0.84	0.786	36.7
298.15 K, x1 = 0.89	0.495	44.6
298.15 K, x1 = 0.95	–	54.9
298.15 K, x1 = 1	0.282	68.1
303.15 K, x1 = 0.05	0.43	0.88
303.15 K, x1 = 0.11	0.754	1.75
303.15 K, x1 = 0.16	1.43	3.06
303.15 K, x1 = 0.21	1.88	4.62
303.15 K, x1 = 0.32	2.35	7.96
303.15 K, x1 = 0.37	2.53	9.57
303.15 K, x1 = 0.47	2.59	12.57
303.15 K, x1 = 0.53	2.37	14.02
303.15 K, x1 = 0.58	2.1	15.54
303.15 K, x1 = 0.63	1.84	17.28
303.15 K, x1 = 0.68	1.6	19.39
303.15 K, x1 = 0.74	1.35	22.1
303.15 K, x1 = 0.79	1.13	25.6
303.15 K, x1 = 0.84	0.94	30.2
303.15 K, x1 = 0.89	0.601	36.2
303.15 K, x1 = 0.95	–	44
303.15 K, x1 = 1	0.344	54
308.15 K, x1 = 0.05	0.464	0.82
308.15 K, x1 = 0.11	0.816	1.6
308.15 K, x1 = 0.16	1.54	2.75
308.15 K, x1 = 0.21	2.07	4.1
308.15 K, x1 = 0.32	2.55	6.97
308.15 K, x1 = 0.37	2.74	8.34
308.15 K, x1 = 0.42	2.86	9.64
308.15 K, x1 = 0.53	2.65	12.09
308.15 K, x1 = 0.58	2.36	13.36
308.15 K, x1 = 0.63	2.1	14.8
308.15 K, x1 = 0.74	1.57	18.74
308.15 K, x1 = 0.79	1.33	21.6
308.15 K, x1 = 0.84	1.1	25.3
308.15 K, x1 = 0.89	0.686	30.2
308.15 K, x1 = 0.95	–	36.4
308.15 K, x1 = 1	0.415	44.4
313.15 K, x1 = 0.05	0.504	0.77
313.15 K, x1 = 0.11	0.86	1.47
313.15 K, x1 = 0.16	1.66	2.48
313.15 K, x1 = 0.21	2.24	3.67
313.15 K, x1 = 0.26	2.53	4.92
313.15 K, x1 = 0.37	2.95	7.34
313.15 K, x1 = 0.42	3.07	8.45
313.15 K, x1 = 0.47	3.09	9.51
313.15 K, x1 = 0.58	2.63	11.64
313.15 K, x1 = 0.63	2.38	12.85
313.15 K, x1 = 0.79	1.55	18.4
313.15 K, x1 = 0.89	0.876	25.1
313.15 K, x1 = 0.95	–	29.8
318.15 K, x1 = 0.05	0.538	0.73
318.15 K, x1 = 0.11	0.94	1.36
318.15 K, x1 = 0.16	1.8	2.26
318.15 K, x1 = 0.26	2.7	4.39
318.15 K, x1 = 0.32	3.02	5.45
318.15 K, x1 = 0.37	3.18	6.46
318.15 K, x1 = 0.42	3.26	7.41
318.15 K, x1 = 0.47	3.3	8.32
318.15 K, x1 = 0.53	3.18	9.22
318.15 K, x1 = 0.58	2.86	10.16
318.15 K, x1 = 0.74	1.98	14.02
318.15 K, x1 = 0.89	0.991	21.4
318.15 K, x1 = 1	0.559	29.7
